The text below walks through data of ChEMBL document CHEMBL3243923, “Linked Aryl Aryloxypropanolamines as a new class of lipid catabolis agents” (J Med Chem, 1978).

The source made the active and inactive calls. The calls are words filed in the database; no cut-off is given here.

The first data set has as its system Mus musculus. The data set can be described thus: Toxicity in mouse assessed as liver hypertrophy at 1000 mg/kg, po administered for 21 days. It is filed as organism-based. Details: dose 1000 mg/kg, route oral. The conditions noted are these: in vivo, 504 h.
As for `CC(C)NCC(O)COc1c(C2CCCCC2)cc(/C=C/c2ccccc2)cc1C1CCCCC1.O=C(O)/C=C\C(=O)O` (stereo unspecified), the Activity entry is listed as “Non-toxic”.

With `CC(C)NCC(O)COc1c(C(C)(C)C)cc(Oc2ccccc2)cc1C(C)(C)C.O=C(O)/C=C\C(=O)O` (stereo unspecified), the Activity entry is listed as “Non-toxic”.

Test system in the next data set: not listed separately
As to the kind of experiment: Chronic toxicity in po dosed mouse assessed as mortality administered as qd for 21 days. It is filed as organism-based. The conditions noted are these: in vivo, read-out: MNTD.
Take `CC(C)NCC(O)COc1c(C2CCCCC2)cc(/C=C/c2ccccc2)cc1C1CCCCC1.O=C(O)/C=C\C(=O)O` (stereo unspecified): the MTD at 504 h was 100 mg/kg.

As to `CC(C)NCC(O)COc1c(C(C)(C)C)cc(Oc2ccccc2)cc1C(C)(C)C.O=C(O)/C=C\C(=O)O` (stereo unspecified), the MTD at 504 h stood at 100 mg/kg.

Another data set relates to Mus musculus. As to the kind of experiment: Antiobesity activity in mouse assessed as reduction in utero fat administered every day through diet for 10 days measured after day 10. The conditions noted are these: 240 h. The data set is classed as functional.
For `CC(C)NCC(O)COc1c(C2CCCCC2)cc(/C=C/c2ccccc2)cc1C1CCCCC1.O=C(O)/C=C\C(=O)O` (stereo unspecified), the ED25 worked out at 38 mg/kg.

On to `CC(C)NCC(O)COc1c(C(C)(C)C)cc(Oc2ccccc2)cc1C(C)(C)C.O=C(O)/C=C\C(=O)O` (stereo unspecified), for which the ED25 is 20 mg/kg.

The test system of another data set is Mus musculus. The data set can be described thus: Antiobesity activity in mouse assessed as reduction in utero fat at 0.04% administered every day through diet for 10 days measured after day 10 relative to control. It is filed as functional. Details: scale not given: the % may be the effect or the level left.
Settings: not given
Turning to `Cc1cc(/C=C/c2ccccc2)cc(C)c1OCC(O)CNC(C)C` (stereo unspecified), the Activity was found to be 31%.

Regarding `CCc1cc(/C=C/c2ccccc2C(F)(F)F)cc(CC)c1OCC(O)CNC(C)C` (stereo unspecified), the Activity is given as 20%.

In the case of `CC(C)NCC(O)COc1c(C(C)(C)C)cc(/C=C/c2ccc3c(c2)OCO3)cc1C(C)(C)C` (stereo unspecified), the outcome was inactive.

For `CN(C)CCNCC(O)COc1c(C(C)(C)C)cc(/C=C/c2ccccc2)cc1C(C)(C)C` (stereo unspecified), the result was inactive.

With `CCC(C)NCC(O)COc1c(C(C)(C)C)cc(/C=C/c2ccccc2)cc1C(C)(C)C` (stereo unspecified), the Activity was determined as 23%.

Regarding `CC(C)NCC(O)COc1c(C(C)(C)C)cc(/C=C/c2ccccc2)cc1C(C)(C)C` (stereo unspecified), the Activity came out at 39%.

For the molecule `CC(C)(C)c1cc(/C=C/c2ccccc2)cc(C(C)(C)C)c1OCC(O)CNCc1ccccc1` (stereo unspecified), the outcome was inactive.

Regarding `CC(C)NCC(O)COc1c(C(C)(C)C)cc(/C=C/c2cccc3ccccc23)cc1C(C)(C)C` (stereo unspecified), the outcome was inactive.

In the case of `CC(C)(C)NCC(O)COc1c(C(C)(C)C)cc(/C=C/c2ccccc2)cc1C(C)(C)C` (stereo unspecified), the Activity was 20%.

Turning to `Cc1ccc(/C=C/c2cc(C(C)(C)C)c(OCC(O)CNC(C)C)c(C(C)(C)C)c2)cc1` (stereo unspecified), the outcome was inactive.

As to `CC(C)NCC(O)COc1c(C(C)(C)C)cc(S(=O)(=O)c2ccc(Cl)cc2)cc1C(C)(C)C` (stereo unspecified), the outcome was inactive.

`CC(C)NCC(O)COc1c(C(C)(C)C)cc(Sc2ccccc2)cc1C(C)(C)C` (stereo unspecified): the outcome was inactive.

On to `COc1ccc(/C=C/c2cc(C(C)(C)C)c(OCC(O)CNC(C)(C)C)c(C(C)(C)C)c2)cc1Br` (stereo unspecified), for which the outcome was inactive.

`CC(C)(C)c1cc(/C=C/c2ccccc2)cc(C(C)(C)C)c1OCC(O)CNCCO` (stereo unspecified): the outcome was inactive.

On to `CC(C)CNCC(O)COc1c(C(C)(C)C)cc(/C=C/c2ccccc2)cc1C(C)(C)C` (stereo unspecified), for which the outcome was inactive.

With `CC(C)NCC(O)COc1c(C(C)(C)C)cc(/C=C/c2ccccc2)cc1C(C)(C)C` (single isomer, unassigned; (+)), the result was inactive.

With `CCc1cc(/C=C/c2ccccc2F)cc(CC)c1OCC(O)CNC(C)C` (stereo unspecified), the Activity is reported as 37%.

Take `CCCCNCC(O)COc1c(C(C)(C)C)cc(/C=C/c2ccccc2)cc1C(C)(C)C` (stereo unspecified): the Activity came out at 25%.

With `CC(C)NCC(O)COc1c(C(C)(C)C)cc(Oc2ccc(Cl)cc2)cc1C(C)(C)C` (stereo unspecified), the result was inactive.

On to `CC(C)NCC(O)COc1c(C(C)(C)C)cc(S(=O)(=O)c2ccccc2)cc1C(C)(C)C` (stereo unspecified), for which the result was inactive.

`CCC(C)c1cc(/C=C/c2ccccc2)cc(C(C)CC)c1OCC(O)CNC(C)C` (stereo unspecified): the outcome was inactive.

`CC(C)NCC(O)COc1c(C(C)(C)C)cc(CCc2ccccc2)cc1C(C)(C)C` (stereo unspecified): the outcome was inactive.

With `CC(C)NCC(O)COc1ccc(Sc2ccc(Cl)cc2)cc1` (stereo unspecified), the Activity worked out at 22%.

`CCN(CC)CCCNCC(O)COc1c(C(C)(C)C)cc(/C=C/c2ccccc2)cc1C(C)(C)C` (stereo unspecified): the outcome was inactive.

As to `CC(C)(C)c1cc(/C=C/c2ccccc2)cc(C(C)(C)C)c1OCC(O)CNC1CCCCC1` (stereo unspecified), the Activity came out at 24%.

As to `CC(C)NCC(O)COc1c(C(C)(C)C)cc(/C=C/c2ccccc2Cl)cc1C(C)(C)C` (stereo unspecified), the outcome was inactive.

As to `CC(C)NCC(O)COc1c(C(C)(C)C)cc(/C=C/c2ccc([N+](=O)[O-])cc2)cc1C(C)(C)C` (stereo unspecified), the Activity is on record as 45%.

For the molecule `Cc1ccccc1/C=C/c1cc(C(C)(C)C)c(OCC(O)CNC(C)C)c(C(C)(C)C)c1` (stereo unspecified), the Activity was 42%.

In the case of `Cc1cc(/C=C/c2ccccc2)cc(C(C)(C)C)c1OCC(O)CNC(C)C` (stereo unspecified), the outcome was inactive.

As to `CN(C)CCCNCC(O)COc1c(C(C)(C)C)cc(/C=C/c2ccccc2)cc1C(C)(C)C.Cl` (stereo unspecified), the Activity is 45%.

For the molecule `CC(C)NCC(O)COc1c(C(C)(C)C)cc([S+]([O-])c2ccccc2)cc1C(C)(C)C` (stereo unspecified), the outcome was inactive.

In the case of `COc1ccc(/C=C/c2cc(C(C)(C)C)c(OCC(O)CNC(C)C)c(C(C)(C)C)c2)cc1Br` (stereo unspecified), the result was inactive.

For the molecule `CC(C)(C)c1cc(/C=C/c2ccccc2)cc(C(C)(C)C)c1OCC(O)CNCCNC(=O)Nc1ccccc1` (stereo unspecified), the outcome was inactive.

As for `CCCCCCNCC(O)COc1c(C(C)(C)C)cc(/C=C/c2ccccc2)cc1C(C)(C)C` (stereo unspecified), the result was inactive.

Consider `CC(C)NCC(O)COc1c(C2CCCCC2)cc(/C=C/c2ccccc2)cc1C1CCCCC1.O=C(O)/C=C\C(=O)O` (stereo unspecified), for which the Activity was determined as 27%.

Turning to `CC(C)NCC(O)COc1c(C(C)(C)C)cc(Sc2ccc(Cl)cc2)cc1C(C)(C)C` (stereo unspecified), the result was inactive.

For the molecule `COc1ccc(-c2cc(C(C)(C)C)c(OCC(O)CNC(C)C)c(C(C)(C)C)c2)cc1` (stereo unspecified), the outcome was inactive.

As to `Cc1ccc(/C=C/c2cc(C(C)(C)C)c(OCC(O)CNC(C)C)c(C(C)(C)C)c2)cc1C` (stereo unspecified), the result was inactive.

For `CC(C)NCC(O)COc1c(C(C)C)cc(/C=C/c2ccccc2)cc1C(C)C` (stereo unspecified), the Activity is listed as 20%.

Turning to `CC(C)NCC(O)COc1ccc(C#Cc2ccccc2)cc1` (stereo unspecified), the Activity amounted to 28%.

For `CC(C)NCC(O)COc1c(C(C)(C)C)cc(Oc2ccccc2)cc1C(C)(C)C.O=C(O)/C=C\C(=O)O` (stereo unspecified), the Activity stood at 20%.

As to `CC(C)NCC(O)COc1c(C(C)(C)C)cc(/C=C/c2ccc(C(C)(C)C)cc2)cc1C(C)(C)C` (stereo unspecified), the result was inactive.

For `CC(C)NCC(O)COc1ccc(/C=C/c2ccncc2)cc1` (stereo unspecified), the Activity is reported as 24%.

On to `CCCNCC(O)COc1c(C(C)(C)C)cc(/C=C/c2ccccc2)cc1C(C)(C)C` (stereo unspecified), for which the result was inactive.

In the case of `CC(C)NCC(O)COc1c(C(C)(C)C)cc(/C=C/c2ccc(Cl)c(Cl)c2)cc1C(C)(C)C` (stereo unspecified), the result was inactive.

Turning to `CC(C)NCC(O)COc1ccc(-c2ccccc2)cc1` (stereo unspecified), the Activity amounted to 24%.

Consider `CCNCC(O)COc1c(C(C)(C)C)cc(/C=C/c2ccccc2)cc1C(C)(C)C` (stereo unspecified), for which the Activity stood at 24%.

As to `CC(C)NCC(O)COc1c(C(C)(C)C)cc(C#Cc2ccccc2)cc1C(C)(C)C.O=C(O)/C=C\C(=O)O` (stereo unspecified), the Activity amounted to 25%.

In the case of `CC(C)NCC(O)COc1c(C(C)(C)C)cc(/C=C/c2ccc(F)cc2)cc1C(C)(C)C` (stereo unspecified), the outcome was inactive.

As for `CC(C)NCC(O)COc1ccc(S(=O)(=O)c2ccc(Cl)cc2)cc1` (stereo unspecified), the outcome was inactive.

For `CC(C)NCC(O)COc1c(C(C)(C)C)cc(/C=C/c2ccc3ccccc3c2)cc1C(C)(C)C` (stereo unspecified), the outcome was inactive.

For `CC(C)NCC(O)COc1ccc([S+]([O-])c2ccc(Cl)cc2)cc1` (stereo unspecified), the result was inactive.

Regarding `CC(C)(C)c1cc(/C=C/c2ccccc2)cc(C(C)(C)C)c1OCC(O)CNC1CC1` (stereo unspecified), the result was inactive.

As for `CNCC(O)COc1c(C(C)(C)C)cc(/C=C/c2ccccc2)cc1C(C)(C)C.O.O=C(O)C(=O)O` (stereo unspecified), the Activity worked out at 44%.

`CCCCN(CCCC)CCCNCC(O)COc1c(C(C)(C)C)cc(/C=C/c2ccccc2)cc1C(C)(C)C.O=C(O)/C=C\C(=O)O` (stereo unspecified): the Activity is 25%.
